{
  "source": "paper PMC11157767",
  "about": "(Molecular Cancer, 2024)",
  "key": {"[1]": {"conditions": "pediatric solid tumors, maximum tolerated dose 280 mg/m^2 BID; cited from earlier work"}, "[2]": {"tested_on": "murine TFG-MET tumor cells", "test": "cells", "conditions": "Mus musculus", "from_the_text": "To calculate unbound EC50 and EC90 values, total values were multiplied with unbound drug fractions in culture media (Table 1)."}, "[3]": {"test": "Brain pharmacokinetics in CD-1 nude mice (NCA)", "format": "in vivo, mouse", "description": "(§1) Fig. 2 TFG-MET-driven mouse model and pharmacokinetic profiles of MET inhibitors. a Schematic illustrating the method and utilized vectors to induce CRISPR/Cas9-mediated Trp53 deletion and TFG-MET overexpression following in utero electroporations. b H&E staining and Immunohistochemical analysis of a tumor generated by in utero electroporation, visualized by the HA-tag of TFG-MET. […] Three mice were analyzed per compound and time point. Error bars indicate the standard deviation. Dashed rectangles indicate time windows of radiation in the following preclinical allograft study\n(§2) See Methods – Pharmacokinetics section for a description of abbreviations."}, "TRIM24-MET-r cells": {"tested_on": "TRIM24-MET-r cells", "test": "3-day dose-response assay, TRIM24-MET-r cells", "format": "cell-based", "conditions": "Homo sapiens"}, "TRIM24-MET-i cells": {"tested_on": "TRIM24-MET-i cells", "test": "3-day dose-response assay, TRIM24-MET-i cells", "format": "cell-based", "conditions": "Homo sapiens"}, "[4]": {"tested_on": "murine TFG-MET tumor cells", "conditions": "7 days; RT 0Gy - 8Gy", "method": "For both compounds 1 µM was used as positive control.\nCompound concentrations comprised 10µM and 9 serial 1:3 dilutions in 4 replicates each and radiation doses ranged from 0Gy – 8Gy. […] Tested compound concentrations comprised 10 µM and 9 serial 1:3 dilutions in 4 replicates each. ZIP synergy scores were calculated based on cell numbers according to the CellTiter-Glo Assay by using the synergyfinder tool."}, "TFG-MET allograft tumors": {"tested_on": "TFG-MET allograft tumors", "test": "TFG-MET allograft preclinical trial in CD1 mice, Survival cohort (survival, BLI, body weight)", "format": "in vivo, mouse", "conditions": "Murine allografts", "description": "All treatments started 1 week after transplantation. Radio therapy was administered for 6 days, delivering 12 Gy total. Compound treatment was continued for 84 days. […] N = 8 (vehicle arms) or n = 10 (compound-treated arms), respectively. […] First row is depicted in another intensity scale to visualize tumors in all mice. The depicted scale bar indicates the range from 5x10^5-1x10^7 photons/sec/cm^2/sr.\nSurvival, body weight and tumor burden data from TFG-MET allograft-bearing mice. a,Schematic illustrating the preliminary in vivo study to determine the efficacy of RT alone. b, Survival curve of mice depicted in a. […] Each line represents one mouse. The ends of lines indicate the onset of neurological symptoms and thereby the endpoints.\nBioluminescence signals of in vivo trials."}, "[5]": {"test": "Plasma pharmacokinetics in CD-1 nude mice (NCA)", "format": "in vivo, mouse", "description": "as §1, §2"}, "[6]": {"conditions": "CD-1 nude, mouse, Brain, NCA estimate"}, "[7]": {"conditions": "CD-1 nude, mouse, Plasma, NCA estimate"}},
  "note": "“And” between values parts separate entries of the source, which are not always exact repeats. Identical values can stand only once. Like-named read-outs stand apart in the source and are kept apart here.",
  "data": [
    {"smiles": "C[C@@H](Oc1cc(-c2cnn(C3CCNCC3)c2)cnc1N)c1c(Cl)ccc(F)c1Cl", "note": "[Crizotinib]", "values": [
      {"measurement": "mean steady total plasma AUC", "setting": "[1]", "result": "6,990 hr-ng/mL"},
      {"measurement": "EC50", "setting": "[2]; read-out: EC50 (nM) Total", "result": 124, "unit": "nM"},
      {"measurement": "EC50", "setting": "[2]; read-out: EC50 (nM) Unbound*", "result": 76.2, "unit": "nM"},
      {"measurement": "EC90", "setting": "[2]; read-out: EC90 (nM) Total", "result": 612, "unit": "nM"},
      {"measurement": "EC90", "setting": "[2]; read-out: EC90 (nM) Unbound*", "result": 378, "unit": "nM"},
      {"measurement": "IC50", "setting": "[2]; read-out: in vitro IC50", "result": 0.124, "unit": "µM"},
      {"measurement": "Clast", "setting": "[3]; Brain, NCA estimate", "result": 0.453, "unit": "µg/mL"},
      {"measurement": "Tlast", "setting": "[3]; Brain, NCA estimate", "result": 16, "unit": "h"},
      {"measurement": "maximal concentration of unbound drug in the brain", "setting": "[3]; CD1 nude mice, estimated with Fu,b", "result": "~ 11 nM"},
      {"measurement": "concentration reached in brain tissues", "setting": "[3]; CD1 nude mice, total drug", "result": "> 1", "unit": "µM"},
      {"measurement": "AUC(0-t)", "setting": "[3]; [6]", "result": 6.57, "unit": "µg·h/mL"},
      {"measurement": "Cmax", "setting": "[3]; [6]", "result": 0.453, "unit": "µg/mL"},
      {"measurement": "Tmax", "setting": "[3]; [6]", "result": 4, "unit": "h"},
      {"measurement": "Kp", "setting": "[3]; CD-1 nude, mouse, Brain, NCA estimate, read-out: Kp,last", "result": 0.155},
      {"measurement": "EC50", "setting": "TRIM24-MET-r cells; 72 h, read-out: EC50 Total", "result": 0.151, "unit": "µM"},
      {"measurement": "EC90", "setting": "TRIM24-MET-r cells; 72 h, read-out: EC90 Total", "result": 5.67, "unit": "µM"},
      {"measurement": "EC50", "setting": "TRIM24-MET-r cells; read-out: EC50 Unbound", "result": 0.093, "unit": "µM"},
      {"measurement": "EC90", "setting": "TRIM24-MET-r cells; read-out: EC90 Unbound", "result": 3.5, "unit": "µM"},
      {"measurement": "EC50", "setting": "TRIM24-MET-i cells; 72 h, read-out: EC50 Total", "result": 0.0181, "unit": "µM"},
      {"measurement": "EC90", "setting": "TRIM24-MET-i cells; 72 h, read-out: EC90 Total", "result": 0.322, "unit": "µM"},
      {"measurement": "EC50", "setting": "TRIM24-MET-i cells; read-out: EC50 Unbound", "result": 0.0111, "unit": "µM"},
      {"measurement": "EC90", "setting": "TRIM24-MET-i cells; read-out: EC90 Unbound", "result": 0.198, "unit": "µM"},
      {"measurement": "combination effect with RT (ZIP synergy model)", "setting": "[4]", "result": "additive effect with a trend towards synergy"},
      {"measurement": "BLI signal, individual mice", "setting": "TFG-MET allograft tumors; day 7, drug + RT", "result": "3.20E+07 and 3.90E+07 and 3.50E+08 and 1.10E+08 and 1.40E+07 and 8.30E+05 and 5.70E+06 and 1.70E+07 and 6.90E+05 and 4.00E+06"},
      {"measurement": "BLI signal, individual mice", "setting": "TFG-MET allograft tumors; day 7, drug alone", "result": "8.40E+06 and 1.40E+07 and 3.90E+08 and 2.00E+06 and 1.50E+07 and 3.90E+06 and 6.00E+06 and 4.10E+06 and 1.20E+06 and 8.20E+06"},
      {"measurement": "BLI signal, individual mice", "setting": "TFG-MET allograft tumors; day 10, drug + RT", "result": "3.00E+07 and 4.60E+07 and 1.60E+08 and 1.80E+08 and 5.10E+07 and 1.20E+06 and 1.50E+07 and 6.00E+05 and 7.00E+06"},
      {"measurement": "BLI signal, individual mice", "setting": "TFG-MET allograft tumors; day 10, drug alone", "result": "2.30E+07 and 6.50E+07 and 3.70E+08 and 3.10E+06 and 5.60E+07 and 6.20E+06 and 3.30E+07 and 1.30E+07 and 3.50E+06 and 2.70E+06"},
      {"measurement": "BLI signal, individual mice", "setting": "TFG-MET allograft tumors; day 14, drug + RT", "result": "1.90E+06 and 9.10E+07 and 9.70E+07 and 7.90E+07 and 7.60E+05 and 1.70E+08 and 5.90E+08 and 6.70E+05 and 3.10E+07"},
      {"measurement": "BLI signal, individual mice", "setting": "TFG-MET allograft tumors; day 14, drug alone", "result": "5.20E+07 and 1.80E+09 and 3.60E+07 and 3.20E+08 and 6.50E+07 and 1.60E+08 and 1.70E+07 and 1.10E+07 and 2.00E+07"},
      {"measurement": "BLI signal, individual mice", "setting": "TFG-MET allograft tumors; day 21, drug + RT", "result": "1.00E+05 and 5.60E+06 and 1.60E+07"},
      {"measurement": "BLI signal, individual mice", "setting": "TFG-MET allograft tumors; day 21, drug alone", "result": "3.40E+07 and 2.10E+08 and 2.60E+08 and 2.60E+07 and 1.40E+08 and 8.10E+07"},
      {"measurement": "BLI signal, individual mice", "setting": "TFG-MET allograft tumors; day 28, drug + RT", "result": "1.20E+08 and 2.10E+07"},
      {"measurement": "BLI signal, individual mice", "setting": "TFG-MET allograft tumors; day 28, drug alone", "result": "5.90E+07 and 2.20E+08 and 4.40E+08 and 3.00E+08"},
      {"measurement": "BLI signal, individual mice", "setting": "TFG-MET allograft tumors; day 35, drug + RT", "result": "1.30E+05 and 1.70E+07"},
      {"measurement": "BLI signal, individual mice", "setting": "TFG-MET allograft tumors; day 35, drug alone", "result": "1.00E+07 and 8.70E+08 and 6.50E+08"},
      {"measurement": "BLI signal, individual mice", "setting": "TFG-MET allograft tumors; day 42, drug + RT", "result": "1.30E+05"},
      {"measurement": "BLI signal, individual mice", "setting": "TFG-MET allograft tumors; day 42, drug alone", "result": "1.00E+07 and 1.20E+09"},
      {"measurement": "BLI signal, individual mice", "setting": "TFG-MET allograft tumors; day 49, drug alone", "result": "1.90E+06"},
      {"measurement": "BLI signal, individual mice", "setting": "TFG-MET allograft tumors; day 56, drug + RT", "result": "1.30E+05"},
      {"measurement": "BLI signal, individual mice", "setting": "TFG-MET allograft tumors; day 56, drug alone", "result": "2.20E+06"},
      {"measurement": "BLI signal, individual mice", "setting": "TFG-MET allograft tumors; day 63, drug alone", "result": "1.90E+07"},
      {"measurement": "BLI signal, individual mice", "setting": "TFG-MET allograft tumors; day 70, drug + RT", "result": "1.00E+05"},
      {"measurement": "BLI signal, individual mice", "setting": "TFG-MET allograft tumors; day 70, drug alone", "result": "2.30E+07"},
      {"measurement": "BLI signal, individual mice", "setting": "TFG-MET allograft tumors; day 84, drug + RT", "result": "1.26E+05"},
      {"measurement": "BLI signal, individual mice", "setting": "TFG-MET allograft tumors; day 91, drug alone", "result": "1.06E+05"},
      {"measurement": "time of reaching Cmax", "setting": "[5]; CD1 nude mice, post dose, brain and plasma not distinguished", "result": 4, "unit": "h"},
      {"measurement": "AUC", "setting": "[5]; CD-1 nude, mouse, plasma, 25 mg/kg, read-out: total plasma AUC", "result": 64.7, "unit": "µg·h/mL"},
      {"measurement": "AUC(0-inf)", "setting": "[5]; [7]", "result": 64.7, "unit": "µg·h/mL"},
      {"measurement": "AUC(0-t)", "setting": "[5]; [7]", "result": 42.4, "unit": "µg·h/mL"},
      {"measurement": "CL/F", "setting": "[5]; [7]", "result": 1.55, "unit": "L/h/kg"},
      {"measurement": "Cmax", "setting": "[5]; [7]", "result": 5.04, "unit": "µg/mL"},
      {"measurement": "Tmax", "setting": "[5]; [7]", "result": 1, "unit": "h"},
      {"measurement": "half-life", "setting": "[5]; [7]", "result": 10.3, "unit": "h"},
      {"measurement": "k el", "setting": "[5]; [7]", "result": "1.86e-05", "unit": "s⁻¹"},
      {"measurement": "Vd/F", "setting": "[5]; CD-1 nude, mouse, Plasma, NCA estimate, read-out: Vz/F", "result": 23, "unit": "L/kg"},
      {"measurement": "Clast", "setting": "[5]; Plasma, NCA estimate", "result": 1.67, "unit": "µg/mL"},
      {"measurement": "Tlast", "setting": "[5]; Plasma, NCA estimate", "result": 16, "unit": "h"}
    ]}
  ]
}
